In ChEMBL document CHEMBL1125139, “Antitumor agents. 113. New 4 beta-arylamino derivatives of 4'-O-demethylepipodophyllotoxin and related compounds as potent inhibitors of human DNA topoisomerase II” (1990):

tested on: Nucleic Acid; test: Inhibition of cellular protein-DNA complex formation at 10 uM; assay type: functional; settings: Homo sapiens

Structure (SMILES) | Formation [%]
COc1cc([C@@H]2c3cc4c(cc3[C@@H](Oc3ccc(O)cc3)[C@H]3COC(=O)[C@H]23)OCO4)cc(OC)c1O | 34
COc1cc([C@@H]2c3cc4c(cc3[C@@H](Nc3cccnc3)[C@H]3COC(=O)[C@H]23)OCO4)cc(OC)c1O | 148
COc1cc([C@@H]2c3cc4c(cc3[C@@H](Nc3cccc(N)c3)[C@H]3COC(=O)[C@H]23)OCO4)cc(OC)c1O | 140
COc1cc([C@@H]2c3cc4c(cc3[C@@H](NCCO)[C@H]3COC(=O)[C@H]23)OCO4)cc(OC)c1O | 121
COC(=O)c1cccc(N[C@@H]2c3cc4c(cc3[C@@H](c3cc(OC)c(O)c(OC)c3)[C@H]3C(=O)OC[C@@H]32)OCO4)c1 | 249
COc1cc([C@@H]2c3cc4c(cc3[C@@H](Nc3cc([N+](=O)[O-])ccc3O)[C@H]3COC(=O)[C@H]23)OCO4)cc(OC)c1O | 15
COc1cc([C@@H]2c3cc4c(cc3[C@@H](Nc3cnc5ccccc5c3)[C@H]3COC(=O)[C@H]23)OCO4)cc(OC)c1O | 123
COc1ccc(N[C@@H]2c3cc4c(cc3[C@@H](c3cc(OC)c(O)c(OC)c3)[C@H]3C(=O)OC[C@@H]32)OCO4)cc1OC | 180
COc1cc([C@@H]2c3cc4c(cc3[C@@H](Nc3ccc(N5CCOCC5)cc3)[C@H]3COC(=O)[C@H]23)OCO4)cc(OC)c1O | 140
COc1cc([C@@H]2c3cc4c(cc3[C@@H](Nc3cccc(C#N)c3)[C@H]3COC(=O)[C@H]23)OCO4)cc(OC)c1O | 137
COc1cc([C@@H]2c3cc4c(cc3[C@@H](O[C@@H]3O[C@@H]5CO[C@@H](C)O[C@H]5[C@H](O)[C@H]3O)[C@H]3COC(=O)[C@H]23)OCO4)cc(OC)c1O [ETOPOSIDE] | 100
COC(=O)c1cc(N[C@@H]2c3cc4c(cc3[C@@H](c3cc(OC)c(O)c(OC)c3)[C@H]3C(=O)OC[C@@H]32)OCO4)cc(C(=O)OC)c1 | 50
COc1cc([C@@H]2c3cc4c(cc3[C@@H](Nc3ccc5c(c3)OCO5)[C@H]3COC(=O)[C@H]23)OCO4)cc(OC)c1O | 164
COc1cc([C@@H]2c3cc4c(cc3[C@@H](Nc3cc(N)ccc3O)[C@H]3COC(=O)[C@H]23)OCO4)cc(OC)c1O | 11
COc1cccc(N[C@@H]2c3cc4c(cc3[C@@H](c3cc(OC)c(O)c(OC)c3)[C@H]3C(=O)OC[C@@H]32)OCO4)c1 | 104
COc1cc([C@@H]2c3cc4c(cc3[C@@H](Sc3ccc(O)cc3)[C@H]3COC(=O)[C@H]23)OCO4)cc(OC)c1O | 10
COc1cc([C@@H]2c3cc4c(cc3[C@@H](Nc3ccc(N)cc3)[C@H]3COC(=O)[C@H]23)OCO4)cc(OC)c1O | 330

tested on: not listed separately; test: Concentration for 50% reduction in cell number after 3-day incubation; assay type: functional; settings: Homo sapiens, 72 h; read-out: ID50 (the source's name)

Structure (SMILES) | IC50 [µM]
COc1cc([C@@H]2c3cc4c(cc3[C@@H](Oc3ccc(O)cc3)[C@H]3COC(=O)[C@H]23)OCO4)cc(OC)c1O | < 1
COc1cc([C@@H]2c3cc4c(cc3[C@@H](Nc3cccnc3)[C@H]3COC(=O)[C@H]23)OCO4)cc(OC)c1O | 0.24
COc1cc([C@@H]2c3cc4c(cc3[C@@H](Nc3cccc(N)c3)[C@H]3COC(=O)[C@H]23)OCO4)cc(OC)c1O | 4
COc1cc([C@@H]2c3cc4c(cc3[C@@H](NCCO)[C@H]3COC(=O)[C@H]23)OCO4)cc(OC)c1O | 1.6
COC(=O)c1cccc(N[C@@H]2c3cc4c(cc3[C@@H](c3cc(OC)c(O)c(OC)c3)[C@H]3C(=O)OC[C@@H]32)OCO4)c1 | 2.7
COc1cc([C@@H]2c3cc4c(cc3[C@@H](Nc3cc([N+](=O)[O-])ccc3O)[C@H]3COC(=O)[C@H]23)OCO4)cc(OC)c1O | 1
COc1cc([C@@H]2c3cc4c(cc3[C@@H](Nc3cnc5ccccc5c3)[C@H]3COC(=O)[C@H]23)OCO4)cc(OC)c1O | < 1
COc1ccc(N[C@@H]2c3cc4c(cc3[C@@H](c3cc(OC)c(O)c(OC)c3)[C@H]3C(=O)OC[C@@H]32)OCO4)cc1OC | < 1
COc1cc([C@@H]2c3cc4c(cc3[C@@H](Nc3ccc(N5CCOCC5)cc3)[C@H]3COC(=O)[C@H]23)OCO4)cc(OC)c1O | 0.66
COc1cc([C@@H]2c3cc4c(cc3[C@@H](Nc3cccc(C#N)c3)[C@H]3COC(=O)[C@H]23)OCO4)cc(OC)c1O | 0.69
COc1cc([C@@H]2c3cc4c(cc3[C@@H](O[C@@H]3O[C@@H]5CO[C@@H](C)O[C@H]5[C@H](O)[C@H]3O)[C@H]3COC(=O)[C@H]23)OCO4)cc(OC)c1O [ETOPOSIDE] | 0.2
COC(=O)c1cc(N[C@@H]2c3cc4c(cc3[C@@H](c3cc(OC)c(O)c(OC)c3)[C@H]3C(=O)OC[C@@H]32)OCO4)cc(C(=O)OC)c1 | < 1
COc1cc([C@@H]2c3cc4c(cc3[C@@H](Nc3ccc5c(c3)OCO5)[C@H]3COC(=O)[C@H]23)OCO4)cc(OC)c1O | < 1
COc1cc([C@@H]2c3cc4c(cc3[C@@H](Nc3cc(N)ccc3O)[C@H]3COC(=O)[C@H]23)OCO4)cc(OC)c1O | 3.3
COc1cccc(N[C@@H]2c3cc4c(cc3[C@@H](c3cc(OC)c(O)c(OC)c3)[C@H]3C(=O)OC[C@@H]32)OCO4)c1 | 3.8
COc1cc([C@@H]2c3cc4c(cc3[C@@H](Sc3ccc(O)cc3)[C@H]3COC(=O)[C@H]23)OCO4)cc(OC)c1O | < 1
COc1cc([C@@H]2c3cc4c(cc3[C@@H](Nc3ccc(N)cc3)[C@H]3COC(=O)[C@H]23)OCO4)cc(OC)c1O | 0.8

molecular target: DNA topoisomerase II (Homo sapiens) (UniProt P11388+Q02880); test: Inhibitory activity against human DNA topoisomerase II; assay type: protein assay; settings: not given

Structure (SMILES) | ID50 [µM]
COc1cc([C@@H]2c3cc4c(cc3[C@@H](Oc3ccc(O)cc3)[C@H]3COC(=O)[C@H]23)OCO4)cc(OC)c1O | 50
COc1cc([C@@H]2c3cc4c(cc3[C@@H](Nc3cccnc3)[C@H]3COC(=O)[C@H]23)OCO4)cc(OC)c1O | 50
COc1cc([C@@H]2c3cc4c(cc3[C@@H](Nc3cccc(N)c3)[C@H]3COC(=O)[C@H]23)OCO4)cc(OC)c1O | 25
COC(=O)c1cccc(N[C@@H]2c3cc4c(cc3[C@@H](c3cc(OC)c(O)c(OC)c3)[C@H]3C(=O)OC[C@@H]32)OCO4)c1 | 50
COc1cc([C@@H]2c3cc4c(cc3[C@@H](Nc3cc([N+](=O)[O-])ccc3O)[C@H]3COC(=O)[C@H]23)OCO4)cc(OC)c1O | > 100
COc1cc([C@@H]2c3cc4c(cc3[C@@H](Nc3cnc5ccccc5c3)[C@H]3COC(=O)[C@H]23)OCO4)cc(OC)c1O | 50
COc1ccc(N[C@@H]2c3cc4c(cc3[C@@H](c3cc(OC)c(O)c(OC)c3)[C@H]3C(=O)OC[C@@H]32)OCO4)cc1OC | 25
COc1cc([C@@H]2c3cc4c(cc3[C@@H](Nc3ccc(N5CCOCC5)cc3)[C@H]3COC(=O)[C@H]23)OCO4)cc(OC)c1O | 10
COc1cc([C@@H]2c3cc4c(cc3[C@@H](Nc3cccc(C#N)c3)[C@H]3COC(=O)[C@H]23)OCO4)cc(OC)c1O | 25
COC(=O)c1cc(N[C@@H]2c3cc4c(cc3[C@@H](c3cc(OC)c(O)c(OC)c3)[C@H]3C(=O)OC[C@@H]32)OCO4)cc(C(=O)OC)c1 | 25
COc1cc([C@@H]2c3cc4c(cc3[C@@H](Nc3ccc5c(c3)OCO5)[C@H]3COC(=O)[C@H]23)OCO4)cc(OC)c1O | 50
COc1cc([C@@H]2c3cc4c(cc3[C@@H](Nc3cc(N)ccc3O)[C@H]3COC(=O)[C@H]23)OCO4)cc(OC)c1O | > 100
COc1cccc(N[C@@H]2c3cc4c(cc3[C@@H](c3cc(OC)c(O)c(OC)c3)[C@H]3C(=O)OC[C@@H]32)OCO4)c1 | 25
COc1cc([C@@H]2c3cc4c(cc3[C@@H](Sc3ccc(O)cc3)[C@H]3COC(=O)[C@H]23)OCO4)cc(OC)c1O | > 100
COc1cc([C@@H]2c3cc4c(cc3[C@@H](Nc3ccc(N)cc3)[C@H]3COC(=O)[C@H]23)OCO4)cc(OC)c1O | 5
